Data from patent publication US12201622B2, “Continuous delivery of lenalidomide and other immunomodulatory agents” (Starton Therapeutics, Inc., priority 2019, dated 2025).
“Also recorded” adds a separate entry of the source.

Tests used:
[1] = system: H929 multiple myeloma tumor cells; test: Efficacy of lenalidomide continuous infusion in H929 myeloma xenograft model; format: in vivo, CB.17 SCID mouse
Description: In this study, a composition comprising lenalidomide was continuously delivered via subcutaneous infusion or was delivered once a day via intraperitoneal injection to SCID mice wherein the mice were implanted with a H929 multiple myeloma xenograft.
(§1) Six groups of female CB.17 SCID mouse, each containing ten mice, were subcutaneously injected with 1×10^7 H929 multiple myeloma tumor cells in 50% Matrigel. After the tumor reached an average size of 100-150 mm^3, an iPrecio pump was surgically implanted into each of the mice. Dosing began twenty-four hours post pump implantation. Group 1, the control group, was treated with vehicle via intraperitoneal injection once a day. Group 2 was treated with lenalidomide via intraperitoneal injection once a day. Each of Groups 3-6 was treated lenalidomide via continuous subcutaneous infusion at different hourly rate. The dosing lasted 14 days followed by one day off the treatment and lasted for another 14 days. The iPrecio pump was replaced after 14 days. The formulation used in Groups 2-6 contains 20% PEG400 in water as the carrier. Blood was drawn at predetermined time points and analyzed
The table below lists the daily dose and schedule for each of the six groups.

[2] = Body weight and hematologic toxicity (WBC, PLT, ANC) in xenografted SCID mice; format: in vivo, CB.17 SCID mouse; settings: for ANC: normal range 0.77-2.5; for WBC: normal range 1.4-5.4; for PLT: normal range 733-1441
Description: as §1

[3] = Blood levels of lenalidomide in SCID mice after daily intraperitoneal dose; format: in vivo, SCID mouse; settings: Group 2: 500 mcg ip once a day
Description: In the study described in Example 1, the SCID mice in Group 2 were given the standard of care treatment which is a daily intraperitoneal dose of 25 mg/kg (500 mcg for 20 gm mouse) administered once a day. […] For example, if the continuous blood level is greater than that observed at 16 hours but less than that observed at 10 hours in daily intraperitoneal dose of 500 mcg administered once a day, it is effective and non-toxic. The maintenance of continuous dose specific blood levels in terms of their time range are predicted to be safe and effective and result in activity in humans.
as §1
The multiple myeloma study in SCID mice provides pharmacokinetically modeled data to support three treatment paradigms. The standard of care treatment in the mouse model study is a daily intraperitoneal dose of 500 mcg administered once a day (see Group 2). […] The range of tolerable and effective blood levels ranged from the blood level at 10 hours to the blood level at 16 hours. Continuous blood levels of greater than those observed at 8 hours or 0.29 mcg/mL and lower than those observed at 18 hours or 0.013 mcg/mL were either toxic or ineffective, respectfully. The maintenance of continuous dose specific blood levels in terms of their time range are predicted to be safe and effective and result in activity in humans.

[4] = Group 3: 144 μg/day (6 μg/hr) sc continuous, day 8
[5] = Group 4: 48 μg/day (2 μg/hr) sc continuous, day 8
[6] = Group 5: 24 μg/day (1 μg/hr) sc continuous, day 8
[7] = Group 6: 12 μg/day (.5 μg/hr) sc continuous, day 8

Q: Which “survival (Kaplan-Meier)” value ([1]; Group 2: 500 μg/day ip qd) does the source give for Nc1cccc2c1CN(C1CCC(=O)NC1=O)C2=O (stereo not shown) [lenalidomide, 3-(4-amino-1-3-dihydro-1-oxo-2H-isoindol-2yl)-2,6-piperidinedione] here?
A: no mouse survived at day 52

Q: What about the tumor volume ([1]; Group 2: 25 mg/kg (500 μg/day) ip qd x 14/1 day off/qd x 14, 25 mg/kg) of the same molecule?
A: failed to inhibit the growth of the tumor volume; also recorded: slowed progression but did not inhibit the growth of the tumor size

Q: What about the tumor volume ([1]; Group 3: 144 μg/day (6 μg/hr) continuous sc infusion, 14 days/1 day off/14 days) of the same molecule?
A: the only group having tumor volume reduced during the treatment schedule; also recorded: effectively reduced the tumor size in all animals treated at 6 mcg/hr

Q: What about the “survival (Kaplan-Meier)” value ([1]; Group 3: 144 μg/day continuous sc infusion, day 1 to day 95) of the same molecule?
A: the only group having mice survived for 95 days

Q: And the ANC ([2]; Group 2: 25 mg/kg ip qd, day 8)?
A: 1.2 10^3 cells/μL

Q: And the WBC ([2]; Group 2: 25 mg/kg ip qd, day 8)?
A: 1.8 10^3 cells/μL

Q: And the PLT ([2]; Group 2: 25 mg/kg ip qd, day 8)?
A: 850 10^3 cells/μL

Q: And the ANC [2, 4]?
A: 2.4 10^3 cells/μL

Q: What about the WBC [2, 4] of the same molecule?
A: 2.8 10^3 cells/μL

Q: What about the PLT [2, 4] of the same molecule?
A: 1360 10^3 cells/μL

Q: And the ANC [2, 5]?
A: 1.9 10^3 cells/μL

Q: What about the WBC [2, 5] of the same molecule?
A: 2.4 10^3 cells/μL

Q: What about the PLT [2, 5] of the same molecule?
A: 1345 10^3 cells/μL

Q: What about the ANC [2, 6] of the same molecule?
A: 2.8 10^3 cells/μL

Q: And the WBC [2, 6]?
A: 3.3 10^3 cells/μL

Q: What about the PLT [2, 6] of the same molecule?
A: 1410 10^3 cells/μL

Q: And the ANC [2, 7]?
A: 2.5 10^3 cells/μL

Q: And the WBC [2, 7]?
A: 3.2 10^3 cells/μL

Q: And the PLT [2, 7]?
A: 1535 10^3 cells/μL

Q: What about the body weight ([2]; continuous sc infusion (Group 3, 144 μg/day)) of the same molecule?
A: insignificant weight loss; also recorded: did not result in substantial loss of body weight

Q: What about the hematologic toxicity ([2]; continuous sc infusion, Groups 3-6 (12-144 μg/day), day 8) of the same molecule?
A: no substantial hematologic toxicity; also recorded: did not result in substantial loss of body weight or hematologic toxicity

Q: And the blood level trough [3]?
A: 0.002 µg/mL

Q: And the Cmax ([3]; female, CB.17 SCID, mouse, blood, 500 ug, at 0.08 hours, read-out: blood level Cmax)?
A: 2.9 µg/mL

Q: And the concentration at 8 h ([3]; female, CB.17 SCID, mouse, blood, 25 mg/kg, read-out: blood level at 8 hours)?
A: 0.29 µg/mL

Q: What about the concentration at 18 h ([3]; female, CB.17 SCID, mouse, blood, 25 mg/kg, read-out: blood level at 18 hours) of the same molecule?
A: 0.013 µg/mL
